Assay results: PubChem BioAssay (NCI)
Where “and” joins values, the source holds several entries; their conditions need not be identical. Identical values can stand only once.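 Method: 48-hour compound exposure of cells in 96-well plates, five concentrations, linear interpolation of endpoints. GI50 is the concentration that inhibits growth by half. TGI denotes the concentration required for complete inhibition of growth.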

Assays:
Experiment in all cases: NCI-60 cell line screen, 48 h
RXF 393 renal = tested on: RXF 393 renal
NCI/ADR-RES ovarian = tested on: NCI/ADR-RES ovarian
SK-MEL-28 melanoma = tested on: SK-MEL-28 melanoma
OVCAR-8 ovarian = tested on: OVCAR-8 ovarian
786-0 renal = tested on: 786-0 renal
MCF7 breast = tested on: MCF7 breast
COLO 205 colon = tested on: COLO 205 colon
CAKI-1 renal = tested on: CAKI-1 renal
ACHN renal = tested on: ACHN renal
UACC-62 melanoma = tested on: UACC-62 melanoma

Row | SMILES | GI50 (RXF 393 renal) | TGI (RXF 393 renal) | GI50 (NCI/ADR-RES ovarian) | TGI (NCI/ADR-RES ovarian) [µM] | GI50 (SK-MEL-28 melanoma) | TGI (SK-MEL-28 melanoma) | GI50 (OVCAR-8 ovarian) | TGI (OVCAR-8 ovarian) [µM] | GI50 (786-0 renal) | TGI (786-0 renal) | GI50 (MCF7 breast) | TGI (MCF7 breast) | GI50 (COLO 205 colon) [µM] | TGI (COLO 205 colon) [µM] | GI50 (CAKI-1 renal) | TGI (CAKI-1 renal) | GI50 (ACHN renal) | TGI (ACHN renal) [µM] | GI50 (UACC-62 melanoma) | TGI (UACC-62 melanoma) [µM]
1 | NCCCCC1NC(=O)C(CC(=O)O)NC(=O)CNC(=O)C(CCCN=C(N)N)NC(=O)C(N)CSSCC(C(=O)O)NC(=O)C(CC(=O)O)NC(=O)C2CCCN2C(=O)CNC1=O (stereo not given) | > 100 µM | > 100 µM | > 100 µM | > 100 | > 100 µM | > 100 µM | > 100 µM | > 100 | > 100 µM | > 100 µM | > 100 µM | > 100 µM | > 100 | > 100 | 65.4 µM | > 100 µM | > 100 µM | > 100 | > 100 µM | > 100
2 | COc1ccc(Nc2nc3ccccc3c3occc23)cc1 | 5.42 µM | 19.1 µM | 9.32 µM | 18.7 | 7.19 µM | 18.8 µM | 8.51 µM | 22.7 | 5.02 µM | 10.8 µM | 7.02 µM | 27.2 µM | 7.71 | 18.6 | > 50 µM | > 50 µM | 5.35 µM | 13.7 | 5.48 µM | 11.4
3 | Cn1cccc1-c1cc(-c2ccccc2)[nH]c(=O)c1C#N | > 100 µM | > 100 µM | > 100 µM | > 100 | > 100 µM | > 100 µM | > 100 µM | > 100 | > 100 µM | > 100 µM | > 100 µM | > 100 µM | > 100 | > 100 | > 100 µM | > 100 µM | > 100 µM | > 100 | 95 µM | > 100
4 | Cc1cc(C)c2c(n1)sc1c(N)ncnc12 | 8.72 µM | > 25 µM | > 25 µM | > 25 | > 25 µM | > 25 µM | > 25 µM | > 25 | > 25 µM | > 25 µM | > 25 µM | > 25 µM | 17 | > 25 | 15.8 µM | > 25 µM | 14.2 µM | > 25 | > 25 µM | > 25
5 | Cc1ccc2nc(-c3ccc(OCC(=O)N=Nc4c(O)[nH]c5ccccc45)cc3)[nH]c2c1 | 7.94 µM | 24.4 µM | > 100 µM | > 100 | 2.61 µM | 7 µM | 2.46 µM | 6.34 | 2.06 µM | 4.38 µM | 1.85 µM | 3.96 µM | 4.03 | > 100 | 2.8 µM | 10.2 µM | 7.37 µM | > 100 | 4.38 µM | 16.8
6 | O=C(/C=C/c1ccc(O)c(O)c1)NCc1c[nH]c2ccccc12 | > 100 µM | > 100 µM | > 100 µM | > 100 | 58.3 µM | > 100 µM | 56.6 µM | > 100 | 39.7 µM | > 100 µM | 70.3 µM | > 100 µM | 49 | > 100 | 27.9 µM | > 100 µM | 45.8 µM | > 100 | 80.6 µM | > 100
7 | CN(Cc1ccc(C(F)(F)F)cc1)CC(O)C(=O)Nc1ccc(Cl)cc1 (stereo not given) | 1.51 µM | 2.96 µM | 1.58 µM | 3.02 | 1.62 µM | 3.16 µM | 1.8 µM | 3.5 | 1.44 µM | 2.84 µM | 1.04 µM | 2.36 µM | 1.86 | 3.46 | 1.37 µM | 2.83 µM | 1.55 µM | 2.92 | 1.64 µM | 3.13
8 | O=[N+]([O-])c1nccn1CC(O)CN1CCCCC1 (stereo not given) | – | > 100 µM | – | > 100 | – | > 100 µM | – | > 100 | – | > 100 µM | – | > 100 µM | – | > 100 | – | > 100 µM | – | > 100 | – | > 100
9 | Cc1nc2ccc(Br)cc2c(=O)n1-c1ccc(NC2OCC(O)C(O)C2O)cc1 (stereo not given) | 32.1 µM and > 100 µM | 51.4 µM and > 100 µM | 41.9 µM and > 100 µM | > 100 | 26.2 µM and > 100 µM | 66.9 µM and > 100 µM | 43.5 µM and > 100 µM | > 100 | 19.1 µM and > 100 µM | 42.2 µM and > 100 µM | 20.8 µM and > 100 µM | 51.9 µM and > 100 µM | > 100 | > 100 | 20.3 µM and > 100 µM | 44.1 µM and > 100 µM | 35.6 µM and > 100 µM | > 100 | 30.7 µM and > 100 µM | > 100
10 | CC1CN(S(=O)(=O)c2oc(-c3ccc(Cl)cc3)nc2C#N)CC(C)O1 (stereo not given) | 1.69 µM | 3.15 µM | 10.7 µM | 65.5 | 1.81 µM | 3.38 µM | 3.19 µM | 21.2 | 1.62 µM | 3.3 µM | 1.59 µM | 3.94 µM | 2.04 | 4.35 | 1.56 µM | 2.93 µM | 1.74 µM | 3.13 | 3.08 µM | 11
11 | CCCCCCCCOC(=O)c1c(C)[nH]c(/C=C2\N=C(c3ccc[nH]3)C=C2OC)c1C | 0.0535 µM | 1.73 µM | 0.0367 µM | 9.86 | 0.25 µM | 6.14 µM | 0.0459 µM | 13.8 | 0.0407 µM | 1.32 µM | 0.0462 µM | 1.67 µM | 0.0846 | 2.62 | < 0.0214 µM | 4.83 µM | 0.0322 µM | 1.77 | 0.0295 µM | 0.0904
